Measured values published in ChEMBL document CHEMBL1201862, “PubChem BioAssay data set” (2004).
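Each compound was tested at five concentrations against cells in 96-well plates for 48 hours. Here, GI50 denotes the concentration required for 50% inhibition of growth.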 Activity calls are given as the source filed them. Cut-off read from the data, not from the text of the source: active = GI50 up to about 1.1 µM and inactive = higher.

What was measured:
Assay in all cases: DTP human tumour cell line panel, 48 h
UACC-62 = system: UACC-62
SW-620 = system: SW-620
NCI-H23 = system: NCI-H23
K562 = system: K562
COLO 205 = system: COLO 205
A498 = system: A498
SNB-75 = system: SNB-75
SK-OV-3 = system: SK-OV-3
LXFL 529 = system: LXFL 529
SK-MEL-28 = system: SK-MEL-28
ACHN = system: ACHN
UACC-257 = system: UACC-257
NCI-H226 = system: NCI-H226
SNB-19 = system: SNB-19
SK-MEL-2 = system: SK-MEL-2
RXF 393 = system: RXF 393
KM12 = system: KM12
MDA-MB-231 = system: MDA-MB-231
DU-145 = system: DU-145
MDA-MB-435 = system: MDA-MB-435

Measured: GI50

Cc1ccccc1C1OC(=O)c2ccc3ccccc3c21 (stereo not given)
inactive: UACC-62 2.94 µM | SW-620 4.52 µM | NCI-H23 5.71 µM | K562 3.07 µM | COLO 205 1.37 µM | A498 2.36 µM | SNB-75 3.55 µM | SK-OV-3 2.52 µM | LXFL 529 3.38 µM | SK-MEL-28 3.43 µM | ACHN 4.63 µM | UACC-257 4.62 µM | NCI-H226 4.75 µM | SNB-19 8.87 µM | SK-MEL-2 2.25 µM | RXF 393 2.59 µM | KM12 5.6 µM

O=c1/c(=C/c2ccccc2[N+](=O)[O-])sc2nc3ccccc3n12
inactive: UACC-62 64.7 µM | SW-620 24.1 µM | NCI-H23 28.6 µM | K562 40.8 µM | COLO 205 26.6 µM | A498 17.3 µM | SNB-75 24.5 µM | SK-OV-3 > 31.6 µM | LXFL 529 33.4 µM | SK-MEL-28 > 46.5 µM | ACHN > 46.5 µM | UACC-257 34.8 µM | NCI-H226 22.9 µM | SNB-19 21.9 µM | SK-MEL-2 20.4 µM | RXF 393 28.3 µM | KM12 34.7 µM

CSc1ccc(N2C(=O)C3c4[nH]c5ccccc5c4C4CCC(C(C)(C)C)CC4C3C2=O)cc1 (stereo not given)
inactive: UACC-62 13.8 µM | SW-620 21.3 µM | NCI-H23 15.5 µM | K562 15.9 µM | COLO 205 10 µM | A498 17.8 µM | SNB-75 18.5 µM | SK-OV-3 16.6 µM | LXFL 529 18.5 µM | SK-MEL-28 13.8 µM | ACHN 13.9 µM | UACC-257 46.8 µM | NCI-H226 19.1 µM | SNB-19 19.1 µM | SK-MEL-2 17.6 µM | RXF 393 20.3 µM | KM12 28.4 µM

CC1=C(C)CC2(CCCCC2=O)[S+]([O-])C1 (stereo not given)
inactive: UACC-62 > 100 µM | SW-620 > 100 µM | NCI-H23 > 100 µM | K562 > 100 µM | COLO 205 > 100 µM | A498 > 100 µM | SNB-75 > 100 µM | SK-OV-3 > 100 µM | LXFL 529 > 100 µM | SK-MEL-28 > 100 µM | ACHN > 100 µM | UACC-257 > 100 µM | NCI-H226 > 100 µM | SNB-19 > 100 µM | SK-MEL-2 > 100 µM | RXF 393 > 100 µM | KM12 > 100 µM

N=C(N)NS(=O)(=O)c1ccc(NC(=O)c2cccc3c(O)c4ccccc4nc23)cc1
inactive: UACC-62 > 100 µM | SW-620 > 100 µM | NCI-H23 > 92.3 µM | K562 44 µM | COLO 205 > 100 µM | A498 > 76.4 µM | SNB-75 31.8 µM | MDA-MB-231 > 100 µM | SK-OV-3 58.2 µM | LXFL 529 > 100 µM | SK-MEL-28 > 100 µM | DU-145 > 100 µM | ACHN > 100 µM | UACC-257 > 100 µM | NCI-H226 > 100 µM | SNB-19 59.4 µM | SK-MEL-2 > 100 µM | MDA-MB-435 > 100 µM | RXF 393 > 41 µM | KM12 > 100 µM

CC(=O)OCC1OC(n2c(=O)n(-c3ccccc3)c(=O)c3cc(Br)cc(Br)c32)C(OC(C)=O)C(OC(C)=O)C1OC(C)=O (stereo not given)
inactive: UACC-62 > 100 µM | SW-620 > 100 µM | NCI-H23 > 100 µM | K562 > 100 µM | COLO 205 > 100 µM | A498 > 100 µM | SNB-75 74.1 µM | SK-OV-3 > 100 µM | LXFL 529 > 100 µM | SK-MEL-28 > 100 µM | ACHN > 100 µM | UACC-257 > 100 µM | NCI-H226 > 100 µM | SNB-19 > 100 µM | SK-MEL-2 > 100 µM | RXF 393 48.1 µM | KM12 > 100 µM

C[Si](C)(C)/C(Br)=C\CCN1C(=O)CCC1O (stereo not given)
inactive: UACC-62 > 100 µM | SW-620 > 100 µM | NCI-H23 > 100 µM | K562 > 100 µM | COLO 205 > 100 µM | A498 > 100 µM | SNB-75 34.2 µM | SK-OV-3 > 100 µM | LXFL 529 > 100 µM | SK-MEL-28 > 100 µM | ACHN > 100 µM | UACC-257 > 100 µM | NCI-H226 > 100 µM | SNB-19 > 100 µM | SK-MEL-2 > 100 µM | RXF 393 > 100 µM | KM12 > 100 µM

CC1C=CC(O)[C@]2(CO)CC3(CCC12)OCCO3 (stereo not given in full)
inactive: UACC-62 > 100 µM | SW-620 > 100 µM | NCI-H23 > 100 µM | K562 > 100 µM | A498 > 100 µM | SNB-75 > 100 µM | SK-OV-3 > 100 µM | LXFL 529 > 100 µM | SK-MEL-28 > 100 µM | ACHN > 100 µM | UACC-257 > 100 µM | NCI-H226 > 100 µM | SNB-19 > 100 µM | SK-MEL-2 > 100 µM | RXF 393 > 100 µM | KM12 > 100 µM

Cc1cc(C)c2c(c1)N[S@@](=O)S2
inactive: UACC-62 18.6 µM | SW-620 3.74 µM | NCI-H23 35.4 µM | K562 26.4 µM | COLO 205 18.2 µM | A498 > 100 µM | SNB-75 32.5 µM | SK-OV-3 31.4 µM | LXFL 529 13.2 µM | SK-MEL-28 28 µM | ACHN 23.4 µM | UACC-257 16.6 µM | NCI-H226 19.2 µM | SNB-19 30.8 µM | SK-MEL-2 22.3 µM | RXF 393 10.6 µM | KM12 24 µM

CCOC(=O)N1C2C=C(C)C(C3C(C)C(=O)N31)N(C(=O)c1ccccc1)O2 (stereo not given)
inactive: UACC-62 > 100 µM | SW-620 > 100 µM | NCI-H23 > 100 µM | K562 > 100 µM | COLO 205 > 100 µM | A498 > 100 µM | SNB-75 > 100 µM | SK-OV-3 > 100 µM | LXFL 529 > 100 µM | SK-MEL-28 > 100 µM | ACHN > 100 µM | UACC-257 > 100 µM | NCI-H226 > 100 µM | SNB-19 > 100 µM | SK-MEL-2 > 100 µM | RXF 393 > 100 µM | KM12 > 100 µM

NC(CNc1ccc(O)cc1)C(=O)O (stereo not given)
inactive: UACC-62 20.9 µM | SW-620 > 100 µM | K562 89.1 µM | COLO 205 > 100 µM | A498 > 100 µM | SNB-75 > 100 µM | SK-OV-3 > 100 µM | LXFL 529 > 100 µM | SK-MEL-28 > 100 µM | ACHN 57.8 µM | UACC-257 > 100 µM | NCI-H226 > 100 µM | SNB-19 > 100 µM | SK-MEL-2 60.4 µM | RXF 393 > 100 µM | KM12 > 100 µM

C[C@H]1CC[P+](C)(c2ccccc2)C1 (stereo not given in full)
inactive: UACC-62 > 100 µM | SW-620 > 100 µM | NCI-H23 > 100 µM | K562 > 100 µM | COLO 205 > 100 µM | A498 > 100 µM | SNB-75 > 100 µM | SK-OV-3 > 100 µM | LXFL 529 > 100 µM | SK-MEL-28 > 100 µM | ACHN > 100 µM | UACC-257 > 100 µM | NCI-H226 > 100 µM | SNB-19 > 100 µM | SK-MEL-2 > 100 µM | RXF 393 > 100 µM | KM12 > 100 µM
